Experiments:
[1] = Sensory evaluation of salty taste-enhancing action in salt aqueous solution (Example 1); conditions: 0.150 wt % evaluation sample and 0.700 wt % sodium chloride in distilled water; compared with 0.700-0.840 wt % saline
Protocol: The salty taste-enhancing action may be evaluated by a sensory test.
Each evaluation sample and sodium chloride (salt) were dissolved in distilled water to prepare an aqueous solution containing 0.150 wt % of the evaluation sample and 0.700 wt % of sodium chloride, which was used as an evaluation solution. In addition, solutions containing 0.700 wt %, 0.735 wt %, 0.770 wt %, 0.805 wt %, and 0.840% of sodium chloride were used as comparative objects.

[2] = Sensory evaluation of relationship between addition concentration and salty taste-enhancing action (Example 2); conditions: for Salty taste-enhancing effect: 0.700 wt % sodium chloride
Protocol: 3-Guanidino-1-propanol hydrochloride obtained in Synthesis Example 2 was evaluated for its relationship between an addition concentration and a salty taste-enhancing action.
3-Guanidino-1-propanol hydrochloride and sodium chloride (salt) were dissolved in distilled water to prepare an aqueous solution containing 1.5 ppm (0.00015 wt %), 15 ppm (0.0015 wt %), 150 ppm (0.015 wt %), or 1,500 ppm (0.15 wt %) of 3-guanidino-1-propanol hydrochloride and 0.700 wt % of sodium chloride, which was used as an evaluation solution. In addition, solutions containing 0.700 wt %, 0.735 wt %, 0.770 wt %, 0.805 wt %, and 0.840 wt % of sodium chloride were used as comparative objects.

N=C(N)NCCCCCC(=O)O [6-Guanidinocaproic acid]
Salty taste-enhancing effect [1]: + (exhibiting a salty taste equal to or stronger than that of 0.735 wt % saline (exhibiting a salty taste-enhancing effect of 5% or more))

N=C(N)NCCCO [Example 14]
Salty taste-enhancing effect [1]: ++++ (exhibiting a salty taste equal to or stronger than that of 0.840 wt % saline (exhibiting a salty taste-enhancing effect of 20% or more))

Cl.N=C(N)N [Guanidine hydrochloride]
Salty taste-enhancing effect [1]: +++ (exhibiting a salty taste equal to or stronger than that of 0.805 wt % saline (exhibiting a salty taste-enhancing effect of 15% or more))

Cl.N=C(N)NCCCO [Synthesis Example 2, 3-Guanidino-1-propanol hydrochloride]
addition concentration at which a salty taste-enhancing action was exhibited ([2]; 0.700 wt % sodium chloride aqueous solution): ≥ 15 ppm
Salty taste-enhancing effect ([2]; addition concentration 1.5 ppm (0.00015%)): ± (exhibiting a salty taste weaker than that of 0.735 wt % saline (exhibiting a salty taste-enhancing effect of less than 5%))
Salty taste-enhancing effect ([2]; addition concentration 15 ppm (0.0015%)): + (exhibiting a salty taste equal to or stronger than that of 0.735 wt % saline (exhibiting a salty taste-enhancing effect of 5% or more))
Salty taste-enhancing effect ([2]; addition concentration 150 ppm (0.015%)): ++ (exhibiting a salty taste equal to or stronger than that of 0.770 wt % saline (exhibiting a salty taste-enhancing effect of 10% or more))
Salty taste-enhancing effect ([2]; addition concentration 1,500 ppm (0.15%)): ++++ (exhibiting a salty taste equal to or stronger than that of 0.840 wt % saline (exhibiting a salty taste-enhancing effect of 20% or more))

N=C(N)NCCC(=O)O [β-Guanidinopropanoic acid]
Salty taste-enhancing effect [1]: ++ (exhibiting a salty taste equal to or stronger than that of 0.770 wt % saline (exhibiting a salty taste-enhancing effect of 10% or more))

— patent US12122736B2, “Salty taste-enhancing agent and manufacturing method therefor, and salty taste-enhancing method” (NISSIN FOODS HOLDINGS CO., LTD., priority 2012, dated 2024)
